Measured values taken from US12428394B2, “2,4-disubstituted pyrimidine derivative, preparation method therefor and use thereof” (CHENGDU ZENITAR BIOMEDICAL TECHNOLOGY CO., LTD., priority 2019, dated 2025).

Tests used:
[1] = tested on: SET-2 cells (JAK2 V617F); test: Inhibition of cell proliferation by MTT experiment, SET-2; format: cell-based; conditions: Homo sapiens, SET-2; MTT, 72 h; read-out: IC50 value on cell proliferation inhibition, SET-2 (V617F)
Outline: (§1)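 MTT assay in MV4-11, MOLM-13 (FLT3-ITD) and SET-2 (JAK2 V617F) cells at 10,000–15,000 cells/well in IMDM with 10% FBS. Cells are exposed to compound for 72 h at 37 °C, then to MTT for 1–3 h. IC50 is fitted from inhibition rates across concentrations.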

[2] = molecular target: T1, FLT3 (Homo sapiens, UniProt P36888); test: In vitro kinase activity experiment, FLT3; format: biochemical; conditions: 40 min; inhibition rate of enzyme at 500 nM; measured by Eurofins; read-out: Kinase activity @ 500 nM (%) FLT3
T1 construct: purchased Eurofins
T1 sequence (P36888 27-993): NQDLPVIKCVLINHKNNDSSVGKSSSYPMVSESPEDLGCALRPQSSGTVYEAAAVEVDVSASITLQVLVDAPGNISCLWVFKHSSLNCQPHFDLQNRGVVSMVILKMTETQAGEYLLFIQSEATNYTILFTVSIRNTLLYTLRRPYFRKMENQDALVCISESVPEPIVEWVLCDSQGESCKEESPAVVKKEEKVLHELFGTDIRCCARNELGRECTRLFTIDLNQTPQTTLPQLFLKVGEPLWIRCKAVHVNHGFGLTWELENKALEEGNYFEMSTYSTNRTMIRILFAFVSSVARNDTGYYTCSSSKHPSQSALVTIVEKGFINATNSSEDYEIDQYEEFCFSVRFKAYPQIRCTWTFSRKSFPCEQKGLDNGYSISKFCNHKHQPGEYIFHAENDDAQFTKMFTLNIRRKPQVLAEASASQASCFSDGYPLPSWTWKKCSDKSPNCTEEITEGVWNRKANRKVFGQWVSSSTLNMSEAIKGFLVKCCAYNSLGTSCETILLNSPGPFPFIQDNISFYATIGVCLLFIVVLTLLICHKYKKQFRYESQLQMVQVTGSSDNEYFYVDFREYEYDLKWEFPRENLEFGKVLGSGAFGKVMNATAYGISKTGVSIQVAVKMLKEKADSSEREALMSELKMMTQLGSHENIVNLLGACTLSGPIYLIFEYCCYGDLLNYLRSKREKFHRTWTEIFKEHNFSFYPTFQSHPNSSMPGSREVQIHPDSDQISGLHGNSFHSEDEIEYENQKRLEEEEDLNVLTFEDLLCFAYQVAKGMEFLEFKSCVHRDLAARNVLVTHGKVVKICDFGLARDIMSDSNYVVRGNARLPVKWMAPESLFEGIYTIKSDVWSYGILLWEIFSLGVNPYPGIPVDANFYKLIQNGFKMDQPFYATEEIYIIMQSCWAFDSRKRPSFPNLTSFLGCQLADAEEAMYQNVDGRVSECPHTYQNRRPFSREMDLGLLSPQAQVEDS
Outline: (§2)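 Radiometric filter-binding assay: kinase, its substrate and compound in 8 mM MOPS pH 7.0, 0.2 mM EDTA, 10 mM MnCl2, with 10 mM magnesium acetate and γ33P-ATP; MgATP started the reaction, 40 min at room temperature. Stopped with 3% phosphate, spotted on Filtermat A, washed, scintillation counted.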

[3] = tested on: MOLM-13 cells (FLT3-ITD-/+); test: Inhibition of cell proliferation by MTT experiment, MOLM-13; format: cell-based, human; conditions: Homo sapiens, MOLM-13; MTT, 72 h; read-out: IC50 value on cell proliferation inhibition, MOLM-13 FLT3-ITD-/+
Outline: as §1

[4] = tested on: MV4-11 cells (FLT3-ITD+/+); test: Inhibition of cell proliferation by MTT experiment, MV4-11; format: cell-based, human; conditions: Homo sapiens, MV4-11; MTT, 72 h; read-out: IC50 value on cell proliferation inhibition, MV4-11 FLT3-ITD+/+
Outline: as §1

[5] = molecular target: T2, JAK2 (Homo sapiens, UniProt O60674); test: In vitro kinase activity experiment, JAK2; format: biochemical; conditions: inhibition rate of enzyme at 500 nM; measured by Eurofins
T2 construct: purchased Eurofins
Outline: as §2

T2 sequence (O60674 whole entry): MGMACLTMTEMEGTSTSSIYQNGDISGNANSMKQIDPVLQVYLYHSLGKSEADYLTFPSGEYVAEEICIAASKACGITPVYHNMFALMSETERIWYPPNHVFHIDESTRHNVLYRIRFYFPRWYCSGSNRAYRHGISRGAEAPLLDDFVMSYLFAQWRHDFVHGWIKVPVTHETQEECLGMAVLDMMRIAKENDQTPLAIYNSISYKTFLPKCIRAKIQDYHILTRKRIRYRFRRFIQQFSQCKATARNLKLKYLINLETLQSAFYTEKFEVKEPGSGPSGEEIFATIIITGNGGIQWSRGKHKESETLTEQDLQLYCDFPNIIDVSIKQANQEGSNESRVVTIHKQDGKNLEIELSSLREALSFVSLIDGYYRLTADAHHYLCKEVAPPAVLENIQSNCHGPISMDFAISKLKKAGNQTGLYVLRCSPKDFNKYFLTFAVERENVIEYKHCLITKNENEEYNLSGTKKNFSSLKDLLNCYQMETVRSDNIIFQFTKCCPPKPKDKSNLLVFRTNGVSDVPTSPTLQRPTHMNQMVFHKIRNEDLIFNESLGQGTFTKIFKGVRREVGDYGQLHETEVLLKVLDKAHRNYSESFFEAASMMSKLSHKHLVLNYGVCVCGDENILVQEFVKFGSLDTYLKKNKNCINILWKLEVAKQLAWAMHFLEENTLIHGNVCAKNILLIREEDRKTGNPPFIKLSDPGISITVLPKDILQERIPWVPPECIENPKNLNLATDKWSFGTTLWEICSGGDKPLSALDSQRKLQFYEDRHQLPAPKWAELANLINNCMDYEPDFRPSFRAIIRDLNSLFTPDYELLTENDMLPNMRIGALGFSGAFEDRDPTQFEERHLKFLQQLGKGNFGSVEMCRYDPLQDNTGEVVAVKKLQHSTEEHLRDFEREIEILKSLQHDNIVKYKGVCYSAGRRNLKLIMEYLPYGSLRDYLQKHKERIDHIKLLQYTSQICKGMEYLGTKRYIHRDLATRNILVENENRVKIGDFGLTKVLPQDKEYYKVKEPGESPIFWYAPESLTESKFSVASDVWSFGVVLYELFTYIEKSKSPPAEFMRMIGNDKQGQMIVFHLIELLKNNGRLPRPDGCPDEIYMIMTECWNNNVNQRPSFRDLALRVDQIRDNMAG

Cc1cnc(Nc2ccc(CNC(=O)/C=C/CN(C)C)cc2)nc1-c1cnn(C(C)C)c1 [CLJ-79, (E)-N-(4-((4-(1-isopropyl-1H-pyrazole-4-yl)-5-methylpyrimidine-2-yl)amino)benzyl)-4-dimethylamino-2-butenamide] was tested, and the IC50 [1] was 0.1 to 1 µM, the inhibition at 0.5 µM [2] was 45% and the IC50 [3] was 0.1 to 1 µM. For the same compound, the IC50 [4] was 0.1 to 1 µM and the “Kinase activity @ 500 nM (%) JAK2” value [5] was 44%.
In the case of Cc1cnc(Nc2ccc(CCNC(=O)/C=C/CN(C)C)cc2)nc1-c1cnn(C(C)C)c1 [CLJ-80, (E)-N-(4-((4-(1-isopropyl-1H-pyrazole-4-yl)-5-methylpyrimidine-2-yl)amino)phenylethyl)-4-dimethylamino-2-butenamide], the IC50 [1] is reported as > 1 µM, the inhibition at 0.5 µM [2] is reported as 23% and the IC50 [3] is reported as > 1 µM. The IC50 [4] was 0.1 to 1 µM and the “Kinase activity @ 500 nM (%) JAK2” value [5] was 34%.
With Cc1cnc(Nc2ccc(CNC(=O)/C=C/C(=O)c3ccccc3)cc2)nc1-c1cnn(C(C)C)c1 [CLJ-81, N-(4-((4-(1-isopropyl-1H-pyrazole-4-yl)-5-methylpyrimidine-2-yl)amino)benzyl)-3-benzoyl acrylamide] the IC50 [1] was > 1 µM, the inhibition at 0.5 µM [2] was 22% and the IC50 [3] was > 1 µM. For the same compound, the IC50 [4] was > 1 µM and the “Kinase activity @ 500 nM (%) JAK2” value [5] was 34%.
Cc1cnc(Nc2ccc(CCNC(=O)/C=C/C(=O)c3ccccc3)cc2)nc1-c1cnn(C(C)C)c1 [CLJ-82, N-(4-((4-(1-isopropyl-1H-pyrazole-4-yl)-5-methylpyrimidine-2-yl)amino)phenethyl)-3-benzoyl acrylamide] was tested, and the IC50 [1] was > 1 µM, the inhibition at 0.5 µM [2] was 12% and the IC50 [3] was > 1 µM. For the same compound, the IC50 [4] was > 1 µM and the “Kinase activity @ 500 nM (%) JAK2” value [5] was 20%.
Work on Cc1cnc(Nc2ccc(CNC(=O)CCCN(C)C)cc2)nc1-c1cnn(C(C)C)c1 [CLJ-83, N-(4-((4-(1-isopropyl-1H-pyrazole-4-yl)-5-methylpyrimidine-2-yl)amino)benzyl)-4-dimethylaminobutyramide] yielded an IC50 [1] of 0.1 to 1 µM, an inhibition at 0.5 µM [2] of 89% and an IC50 [3] of 0.01 to 0.1 µM. The IC50 [4] was 0.01 to 0.1 µM and the “Kinase activity @ 500 nM (%) JAK2” value [5] was 88%.
In the case of Cc1cnc(Nc2ccc(CCNC(=O)CCCN(C)C)cc2)nc1-c1cnn(C(C)C)c1 [CLJ-84, N-(4-((4-(1-isopropyl-1H-pyrazole-4-yl)-5-methylpyrimidine-2-yl)amino)phenethyl)-4-dimethylaminobutyramide], the IC50 [1] is reported as 0.1 to 1 µM, the inhibition at 0.5 µM [2] is reported as 78% and the IC50 [3] is reported as 0.1 to 1 µM. For the same compound, the IC50 [4] was 0.1 to 1 µM and the “Kinase activity @ 500 nM (%) JAK2” value [5] was 79%.
Cc1cnc(Nc2ccc(CNC(=O)CCl)cc2)nc1-c1cnn(C(C)C)c1 [CLJ-85, N-(4-((4-(1-isopropyl-1H-pyrazole-4-yl)-5-methylpyrimidine-2-yl)amino)benzyl)-2-chloroacetamide] was tested, and the IC50 [1] was > 1 µM, the inhibition at 0.5 µM [2] was 67% and the IC50 [3] was > 1 µM. The IC50 [4] was 0.1 to 1 µM and the “Kinase activity @ 500 nM (%) JAK2” value [5] was 56%.
With Cc1cnc(Nc2ccc(CCNC(=O)CCl)cc2)nc1-c1cnn(C(C)C)c1 [CLJ-86, N-(4-((4-(1-isopropyl-1H-pyrazole-4-yl)-5-methylpyrimidine-2-yl)amino)phenethyl)-2-chloroacetamide] the IC50 [1] was > 1 µM, the inhibition at 0.5 µM [2] was 45% and the IC50 [3] was > 1 µM. For the same compound, the IC50 [4] was 0.1 to 1 µM and the “Kinase activity @ 500 nM (%) JAK2” value [5] was 37%.
For Cc1cnc(Nc2ccc(CNC(=O)CCCl)cc2)nc1-c1cnn(C(C)C)c1 [CLJ-87, N-(4-((4-(1-isopropyl-1H-pyrazole-4-yl)-5-methylpyrimidine-2-yl)amino)benzyl)-3-chloropropanamide], the IC50 [1] was > 1 µM, the inhibition at 0.5 µM [2] was 45% and the IC50 [3] was > 1 µM. For the same compound, the IC50 [4] was > 1 µM and the “Kinase activity @ 500 nM (%) JAK2” value [5] was 39%.
In the case of Cc1cnc(Nc2ccc(CCNC(=O)CCCl)cc2)nc1-c1cnn(C(C)C)c1 [CLJ-88, N-(4-((4-(1-isopropyl-1H-pyrazole-4-yl)-5-methylpyrimidine-2-yl)amino)phenethyl)-3-chloropropanamide], the IC50 [1] is reported as > 1 µM, the inhibition at 0.5 µM [2] is reported as 32% and the IC50 [3] is reported as > 1 µM. For the same compound, the IC50 [4] was > 1 µM and the “Kinase activity @ 500 nM (%) JAK2” value [5] was 20%.
In the case of C=CS(=O)(=O)NCc1ccc(Nc2ncc(C)c(-c3cnn(C(C)C)c3)n2)cc1 [CLJ-89], the IC50 [1] is reported as 0.01 to 0.1 µM, the inhibition at 0.5 µM [2] is reported as 47% and the IC50 [3] is reported as > 1 µM. The IC50 [4] was 0.1 to 1 µM and the “Kinase activity @ 500 nM (%) JAK2” value [5] was 99%.
In the case of C=CS(=O)(=O)NCCc1ccc(Nc2ncc(C)c(-c3cnn(C(C)C)c3)n2)cc1 [CLJ-90], the IC50 [1] is reported as 0.1 to 1 µM, the inhibition at 0.5 µM [2] is reported as 95% and the IC50 [3] is reported as 0.01 to 0.1 µM. The IC50 [4] was 0.01 to 0.1 µM and the “Kinase activity @ 500 nM (%) JAK2” value [5] was 97%.
In the case of CCS(=O)(=O)c1nn(C(C)C)cc1-c1nc(Nc2ccc(N3CCC(N(C)CCO)CC3)c(F)c2)ncc1C [CLJ-92, 5-methyl-N-(3-fluoro-4-(4-N-hydroxyethyl-4-N-methylaminopiperidine-1-yl)phenyl)-4-(1-isopropyl-3-ethylsulfonyl-1H-pyrazole-4-yl) pyrimidine-2-amine], the IC50 [1] is reported as 0.1 to 1 µM, the inhibition at 0.5 µM [2] is reported as 98% and the IC50 [3] is reported as 0.01 to 0.1 µM. For the same compound, the IC50 [4] was 0.01 to 0.1 µM and the “Kinase activity @ 500 nM (%) JAK2” value [5] was 104%.
Compound Cc1cnc(Nc2ccc(NC(=O)[C@H]3CCCN3)c(F)c2)nc1-c1cnn(C(C)C)c1 [CLJ-93, (R)-2-((2-fluoro-4-((4-(1-isopropyl-1H-pyrazole-4-yl)-5-methylpyrimidine-2-yl)amino)phenyl)carbamoyl) pyrrolidine] has an IC50 [1] of 0.1 to 1 µM, an inhibition at 0.5 µM [2] of 97% and an IC50 [3] of 0.01 to 0.1 µM. For the same compound, the IC50 [4] was 0.01 to 0.1 µM and the “Kinase activity @ 500 nM (%) JAK2” value [5] was 100%.
With Cc1cnc(Nc2ccc(NS(=O)(=O)c3ccc4c(c3)CC(=O)N4)c(F)c2)nc1-c1cnn(C(C)C)c1 [CLJ-95, N-(2-fluoro-4-((4-(1-isopropyl-1H-pyrazole-4-yl)-5-methylpyrimidine-2-yl)amino)phenyl)-2-oxoindoline-5-sulfonamide] the IC50 [1] was 0.1 to 1 µM, the inhibition at 0.5 µM [2] was 67% and the IC50 [3] was 0.1 to 1 µM. For the same compound, the IC50 [4] was 0.1 to 1 µM and the “Kinase activity @ 500 nM (%) JAK2” value [5] was 66%.
In the case of Cc1cnc(Nc2ccc(NC(=O)[C@H]3CCCN3CC3CC3)c(F)c2)nc1-c1cnn(C(C)C)c1 [CLJ-96, (R)-1-(cyclopropylmethyl)-N-(2-fluoro-4-((4-(1-isopropyl-1H-pyrazole-4-yl)-5-methylpyrimidine-2-yl)amino)phenyl) pyrrolidine-2-carboxamide], the IC50 [1] is reported as 0.1 to 1 µM, the inhibition at 0.5 µM [2] is reported as 56% and the IC50 [3] is reported as 0.1 to 1 µM. For the same compound, the IC50 [4] was 0.1 to 1 µM and the “Kinase activity @ 500 nM (%) JAK2” value [5] was 73%.
Compound Cc1cnc(Nc2ccc(NC(=O)[C@H]3C[C@H](F)CN3)c(F)c2)nc1-c1cnn(C(C)C)c1 [CLJ-97, (2R,4S)-4-fluoro-N-(2-fluoro-4-((4-(1-isopropyl-1H-pyrazole-4-yl)-5-methylpyrimidine-2-yl)amino)phenyl) pyrrolidine-2-carboxamide] has an IC50 [1] of 0.1 to 1 µM, an inhibition at 0.5 µM [2] of 101% and an IC50 [3] of 0.01 to 0.1 µM. For the same compound, the IC50 [4] was 0.01 to 0.1 µM and the “Kinase activity @ 500 nM (%) JAK2” value [5] was 99%.
Work on Cc1cnc(Nc2ccc(NC(=O)CN3CCS(=O)(=O)CC3)c(F)c2)nc1-c1cnn(C(C)C)c1 [CLJ-98, 2-(1,1-dioxthiomorpholine)-N-(2-fluoro-4-((4-(1-isopropyl-1H-pyrazol-4-yl)-5-methylpyrimidine-2-yl)amino)phenyl) acetamide] yielded an IC50 [1] of 0.1 to 1 µM, an inhibition at 0.5 µM [2] of 95% and an IC50 [3] of 0.01 to 0.1 µM. For the same compound, the IC50 [4] was 0.01 to 0.1 µM and the “Kinase activity @ 500 nM (%) JAK2” value [5] was 97%.
